Experimental data reported in patent US20060247323A1, “Stabilisation of light sensitive substances” (priority 2000, published 2006).

Tested on: cockroaches
Assay: Biological knockdown of cockroaches on glass plates sprayed with diluted d-phenothrin emulsions I, J and neat d-phenothrin
Format: in vivo
Details: 30 mg active pesticide/m^2
Description: Samples of the emulsions I and J and neat d-phenothrin are diluted in water and sprayed onto a glass plates to give a concentration of 30 mg active pesticide/m^2. The samples are tested for biological knockdown of cockroaches for 15 minute and 24 hour exposure on the plates and the effectiveness of the pesticide on the treated plates monitored periodically under light and dark conditions. The results of the tests conducted in daylight are shown in Table 3. and those conducted in the dark are shown Table 4.

[1] = daylight, 7 days after application to plates
[2] = daylight, 14 days after application to plates
[3] = daylight, 21 days after application to plates
[4] = daylight, 49 days after application to plates
[5] = daylight, 63 days after application to plates
[6] = daylight, 91 days after application to plates

## CC(C)=CC1C(C(=O)OCc2cccc(Oc3ccccc3)c2)C1(C)C (stereo not drawn) [phenothrin, d-phenothrin]
dark, 1 day after application to plates
  % Kill after 15 minute exposure: 100%
dark, 7 days after application to plates
  % Kill after 15 minute exposure: 100%
dark, 14 days after application to plates
  % Kill after 15 minute exposure: 100%
dark, 21 days after application to plates
  % Kill after 15 minute exposure: 100%
dark, 49 days after application to plates
  % Kill after 15 minute exposure: 100%
dark, 63 days after application to plates
  % Kill after 15 minute exposure: 100%
dark, 91 days after application to plates
  % Kill after 15 minute exposure: 100%
daylight, 1 day after application to plates
  % Kill after 15 minute exposure: 100%
[1]
  % Kill after 15 minute exposure: 0%
  % Kill after 24 hour exposure (in brackets): 10%
[2]
  % Kill after 15 minute exposure: 0 (0) %
  % Kill after 24 hour exposure (in brackets): 0 (0) %
[3]
  % Kill after 15 minute exposure: 10%
  % Kill after 24 hour exposure (in brackets): 0%
[4]
  % Kill after 15 minute exposure: 10 (10) %
  % Kill after 24 hour exposure (in brackets): 10 (10) %
[5]
  % Kill after 15 minute exposure: 10%
  % Kill after 24 hour exposure (in brackets): 40%
[6]
  % Kill after 15 minute exposure: 0 (0) %
  % Kill after 24 hour exposure (in brackets): 0 (0) %
